Holding throughout (type): cell-based
For assay [1], the system named is fetal hemoglobin (HbF) in GCSF-mobilized human CD34+ cells. Description: HbF Induction Assay. Conditions: 168 h; compound 1 μM, 7 days, erythroid-differentiated human CD34+ cells, flow cytometry; DMSO baseline 15% HbF positive cells. How it is done: The expansion, differentiation, and maturation of GCSF-mobilized human CD34^+ (STEMCELL Technologies Inc.) cells towards erythroid lineage cells were performed using a two-phase liquid culture model (Moutouh-de Parseval L A, el al. Pomalidomide and lenalidomide regulate erythropoiesis and fetal hemoglobin production in human CD34+ cells. J Clin Invest. 2008 January; 118(1):248-58). In the first phase, GCSF-mobilized human CD34^+ cells were cultured using StemSpan™-XF (STEMCELL Technologies Inc.) media supplemented with 1×BIT 9500, Penicillin-Streptomycin (50 U/mL), 100 ng/mL recombinant human (rh) SCF, 100 ng/mL rh Flt3-L, 20 ng/mL rh IL-3 and 10 ng/mL rh EPO and the growth of cells maintained in exponential phase for 7 days at 37° C. with 5% CO2 to support expansion and progenitor differentiation prior the second phase and treatment with compounds. In the second phase, culture media was changed to StemSpan™-XF media supplemented with 1×BIT 9500, Penicillin-Streptomycin (50 U/mL), 50 ng/mL rh SCF and 40 ng/mL rh EPO to promote further differentiation and maturation of the erythrocytes and to initiate treatment with compounds. Compounds were dispensed in duplicate at a final concentration of 1 μM in a final DMSO amount of 0.1%. Fresh compound was reapplied, and cell density was kept constant every 2 days. After 7 days, the cells were assessed for viability and fetal hemoglobin expression using flow cytometry. For viability analysis, eBioscience™ Fixable Viability Dye eFluor™ 780 (1:1000, eBioscience; Cat #65-0865-14) was added to the cells and kept in the dark for 10 minutes. For analysis of fetal hemoglobin (HbF), cells were fixed and permeabilized using Fixation Buffer (BioLegend; Cat #420801 and Intracellular staining permeabilization buffer (BioLegend, Cat #420201) following manufacturer's instructions. During permeabilization step, cells were stained with PE-labelled Mouse Anti-Human Fetal Hemoglobin (1:10, clone 2D12; BD Biosciences, Cat #BDB560041) incubated at room temperature for 20 minutes and protected from light. PE-labelled Mouse anti-IgG k, (1:10 clone MOPC-21; BD Biosciences, Cat# BDB551436) was used as an isotype control.
Viability, cell count, and fetal hemoglobin (HbF) levels were measured using an Attune NXT flow cytometer (Thermofisher) and the data analyzed using the FCS express software (De Novo Software). In Table 1 below, the effects of compounds of formula (I), formula (I′), formula (II), formula (II′), and formula (III) on % viable cells, viable cell count, on the % HbF positive cells and the median fluorescent intensity (MFI) of the HbF positive cell population compared to the DMSO controls can be viewed. All gates were set using the isotype negative control. The baseline % HbF positive cells for DMSO-treated control cells was 15%. Compounds of formula (I), formula (I′), formula (II), formula (II′), and formula (III) having HbF induction between 66% and 100% are level A. Compounds of formula (I), formula (I′), formula (II), formula (II′), and formula (III) having HbF induction between 33% and 66% are level B. Compounds of formula (I), formula (I′), formula (II), formula (II′), and formula (III) having HbF induction % less than 33% are level C. For certain compounds of formula (I), formula (I′), formula (II), formula (II′), and formula (III) % HbF induction values 0-33% (activity level C), between 33% and 66% (activity level B), and between 67% and 100% (activity level A) are shown in Table 2 below.

Assay [2] deals with WIZ (Widely interspaced zinc finger) (Homo sapiens (Human), UniProt O95785+Q96SW2). Kind of assay: HUDEP-2 WIZ HiBiT degradation assay. The settings on record: HUDEP-2 WIZ HiBiT cells, 24 hours treatment, luminescence; for DC50: read-out: WIZ EC50. In outline: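 HiBiT-tagged WIZ HUDEP-2 cells were seeded at 1.0×10^6 cells/ml in supplemented StemSpan SFEM II with doxycycline and treated 24 h at 37 °C. Remaining tagged protein was read by Nano-Glo HiBiT lytic luminescence. EC50 and Y-min were fitted after DMSO normalization across 10 concentrations, 10 to 0.0005 μM.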
Chain of WIZ (Widely interspaced zinc finger) (O95785 whole entry): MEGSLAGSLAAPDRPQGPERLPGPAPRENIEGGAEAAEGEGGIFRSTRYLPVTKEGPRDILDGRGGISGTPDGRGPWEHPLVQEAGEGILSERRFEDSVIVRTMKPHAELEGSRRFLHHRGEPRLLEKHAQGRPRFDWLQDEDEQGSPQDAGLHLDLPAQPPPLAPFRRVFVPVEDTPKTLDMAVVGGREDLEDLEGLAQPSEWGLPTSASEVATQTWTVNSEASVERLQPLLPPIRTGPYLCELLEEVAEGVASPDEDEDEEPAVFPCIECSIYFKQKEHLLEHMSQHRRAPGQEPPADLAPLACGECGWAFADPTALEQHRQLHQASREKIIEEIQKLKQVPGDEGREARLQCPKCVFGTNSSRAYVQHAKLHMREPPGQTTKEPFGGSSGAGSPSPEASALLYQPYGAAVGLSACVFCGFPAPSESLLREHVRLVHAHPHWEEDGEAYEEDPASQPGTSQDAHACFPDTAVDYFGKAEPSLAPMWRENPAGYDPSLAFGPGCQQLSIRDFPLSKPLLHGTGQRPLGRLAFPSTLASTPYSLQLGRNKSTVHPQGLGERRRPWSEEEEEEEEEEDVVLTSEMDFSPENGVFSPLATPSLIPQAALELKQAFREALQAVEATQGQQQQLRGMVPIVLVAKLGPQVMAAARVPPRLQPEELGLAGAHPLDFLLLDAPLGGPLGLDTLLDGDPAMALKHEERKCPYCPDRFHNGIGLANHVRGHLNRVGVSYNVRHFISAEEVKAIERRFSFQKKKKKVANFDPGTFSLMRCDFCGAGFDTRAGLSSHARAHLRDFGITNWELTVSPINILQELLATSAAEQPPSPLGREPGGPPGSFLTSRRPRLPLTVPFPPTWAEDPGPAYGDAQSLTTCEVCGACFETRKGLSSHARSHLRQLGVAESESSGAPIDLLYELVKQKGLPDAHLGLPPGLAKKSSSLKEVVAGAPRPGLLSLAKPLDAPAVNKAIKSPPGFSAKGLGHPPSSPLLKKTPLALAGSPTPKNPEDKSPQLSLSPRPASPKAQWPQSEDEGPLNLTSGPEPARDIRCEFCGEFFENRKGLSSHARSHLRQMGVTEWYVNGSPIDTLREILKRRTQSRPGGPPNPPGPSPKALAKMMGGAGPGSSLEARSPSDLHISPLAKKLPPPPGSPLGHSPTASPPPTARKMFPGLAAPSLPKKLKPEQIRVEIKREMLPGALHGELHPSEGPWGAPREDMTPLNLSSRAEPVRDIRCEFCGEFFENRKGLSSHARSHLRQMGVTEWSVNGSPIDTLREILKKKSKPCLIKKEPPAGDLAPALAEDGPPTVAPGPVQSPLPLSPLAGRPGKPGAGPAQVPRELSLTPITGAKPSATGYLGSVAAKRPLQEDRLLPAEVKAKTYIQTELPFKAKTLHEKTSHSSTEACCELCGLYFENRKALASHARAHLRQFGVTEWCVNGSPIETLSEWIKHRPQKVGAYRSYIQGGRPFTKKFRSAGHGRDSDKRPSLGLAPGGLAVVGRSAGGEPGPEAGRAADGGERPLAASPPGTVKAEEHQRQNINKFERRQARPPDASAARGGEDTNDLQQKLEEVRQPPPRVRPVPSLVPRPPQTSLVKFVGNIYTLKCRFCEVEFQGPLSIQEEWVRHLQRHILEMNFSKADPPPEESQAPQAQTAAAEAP
Chain of WIZ (Widely interspaced zinc finger) (Q96SW2 whole entry): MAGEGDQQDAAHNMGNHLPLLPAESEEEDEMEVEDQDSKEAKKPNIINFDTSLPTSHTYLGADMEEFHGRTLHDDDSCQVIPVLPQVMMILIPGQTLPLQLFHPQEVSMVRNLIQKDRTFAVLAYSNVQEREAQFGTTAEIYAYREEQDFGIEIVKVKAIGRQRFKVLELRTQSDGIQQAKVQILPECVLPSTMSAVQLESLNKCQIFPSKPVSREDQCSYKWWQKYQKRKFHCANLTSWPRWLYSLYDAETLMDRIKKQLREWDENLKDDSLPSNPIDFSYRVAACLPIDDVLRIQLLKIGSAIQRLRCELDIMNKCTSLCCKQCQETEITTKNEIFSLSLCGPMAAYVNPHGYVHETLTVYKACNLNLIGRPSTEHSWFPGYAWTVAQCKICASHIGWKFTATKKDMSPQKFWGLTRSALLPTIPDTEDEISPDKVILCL
Chain of WIZ (Widely interspaced zinc finger) (Q16531 whole entry partner): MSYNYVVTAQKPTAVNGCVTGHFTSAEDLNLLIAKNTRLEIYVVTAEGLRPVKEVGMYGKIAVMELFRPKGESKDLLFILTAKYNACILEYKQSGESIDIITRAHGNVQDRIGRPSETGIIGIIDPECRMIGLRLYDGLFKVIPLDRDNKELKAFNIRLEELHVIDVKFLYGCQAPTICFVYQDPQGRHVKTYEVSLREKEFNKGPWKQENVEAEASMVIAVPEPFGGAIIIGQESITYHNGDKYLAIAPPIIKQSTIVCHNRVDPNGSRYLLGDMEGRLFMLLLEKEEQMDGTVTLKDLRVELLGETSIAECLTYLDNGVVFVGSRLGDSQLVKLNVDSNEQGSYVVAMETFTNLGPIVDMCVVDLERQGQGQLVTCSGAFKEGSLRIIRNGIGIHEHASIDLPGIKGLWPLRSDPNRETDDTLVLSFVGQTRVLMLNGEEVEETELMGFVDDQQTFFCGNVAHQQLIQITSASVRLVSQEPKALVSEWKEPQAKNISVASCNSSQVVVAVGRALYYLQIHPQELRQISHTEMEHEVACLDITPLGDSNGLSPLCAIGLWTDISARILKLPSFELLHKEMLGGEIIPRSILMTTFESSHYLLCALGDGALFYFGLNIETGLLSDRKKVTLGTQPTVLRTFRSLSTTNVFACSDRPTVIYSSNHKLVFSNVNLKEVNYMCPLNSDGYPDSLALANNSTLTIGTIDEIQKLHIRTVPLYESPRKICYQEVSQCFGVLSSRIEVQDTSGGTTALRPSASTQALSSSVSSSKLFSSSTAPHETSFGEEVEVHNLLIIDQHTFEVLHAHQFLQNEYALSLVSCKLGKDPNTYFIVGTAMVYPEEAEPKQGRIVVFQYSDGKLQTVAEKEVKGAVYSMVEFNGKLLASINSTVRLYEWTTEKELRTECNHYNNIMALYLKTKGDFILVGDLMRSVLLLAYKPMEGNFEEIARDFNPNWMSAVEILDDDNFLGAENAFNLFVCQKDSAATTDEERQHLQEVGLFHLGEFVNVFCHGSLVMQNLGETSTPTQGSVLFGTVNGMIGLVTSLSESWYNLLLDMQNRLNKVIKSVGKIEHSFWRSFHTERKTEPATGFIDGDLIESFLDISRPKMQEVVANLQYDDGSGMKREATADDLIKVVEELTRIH

Assay [3] deals with ZBTB7A (Zinc Finger And BTB Domain Containing 7A) (Homo sapiens (Human), UniProt O95365+Q96SW2). Description: HUDEP-2 ZBTB7A HiBiT degradation assay. Conditions: HUDEP-2 ZBTB7A HiBiT cells, 24 hours treatment, luminescence; for DC50: read-out: ZBTB7A EC50. Summed up:
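HUDEP-2 cells carrying HiBiT-tagged ZBTB7A, grown 48 h in IMDM with EPO, SCF, insulin, transferrin, heparin, dox and 5% human plasma, then seeded at 1.0×10^6 cells/ml on pre-dispensed compound (10 concentrations, 10–0.0005 μM) for 24 h at 37 °C. Lytic HiBiT luminescence, DMSO-normalised, gave EC50 and Y-min.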

15 molecules from patent publication US20240208937A1, “Compounds and Their Use for Treatment of Hemoglobinopathies” (Bristol-Myers Squibb Company, priority 2022, published 2024) can be followed below.

Chain of ZBTB7A (Zinc Finger And BTB Domain Containing 7A) (O95365 whole entry, the tested form may be a part): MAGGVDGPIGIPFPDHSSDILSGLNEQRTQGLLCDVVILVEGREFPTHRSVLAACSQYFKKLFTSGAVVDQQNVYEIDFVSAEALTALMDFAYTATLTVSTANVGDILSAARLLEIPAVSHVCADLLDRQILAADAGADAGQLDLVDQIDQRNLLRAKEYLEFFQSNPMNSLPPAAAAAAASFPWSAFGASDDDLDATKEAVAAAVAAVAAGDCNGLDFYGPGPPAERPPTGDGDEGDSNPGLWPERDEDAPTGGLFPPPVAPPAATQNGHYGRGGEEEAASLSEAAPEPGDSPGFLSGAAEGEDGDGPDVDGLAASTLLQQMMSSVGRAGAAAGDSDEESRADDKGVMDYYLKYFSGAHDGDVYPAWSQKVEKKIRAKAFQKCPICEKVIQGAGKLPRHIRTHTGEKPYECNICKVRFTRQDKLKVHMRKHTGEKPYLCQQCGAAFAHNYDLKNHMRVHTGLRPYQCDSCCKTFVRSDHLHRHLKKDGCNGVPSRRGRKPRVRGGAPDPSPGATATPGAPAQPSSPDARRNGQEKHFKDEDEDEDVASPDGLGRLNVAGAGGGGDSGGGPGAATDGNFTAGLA
Chain of ZBTB7A (Zinc Finger And BTB Domain Containing 7A) (Q96SW2 whole entry, the tested form may be a part): as the sequence (Q96SW2 whole entry) above
Chain of ZBTB7A (Zinc Finger And BTB Domain Containing 7A) (Q16531 whole entry partner, the tested form may be a part): as the sequence (Q16531 whole entry partner) above

Molecule `Cc1cc(-c2cc3c(cc2Nc2cccc4c2C(=O)N(C2CCC(=O)NC2=O)C4=O)N(C)C(=O)CC3)ccn1` (stereo not drawn) [Compound 43, 2-(2,6-dioxopiperidin-3-yl)-4-((1-methyl-6-(2-methylpyridin-4-yl)-2-oxo-1,2,3,4-tetrahydroquinolin-7-yl)amino)isoindoline-1,3-dione] registered an activation at 1 µM in assay [1] of 66 to 100%. Further, the EC50 (in general, the concentration needed to bring the measured effect to its halfway point) in assay [2] is below 10 nM; in assay [3] it was below 30 nM.
`Cc1csc(-c2cc3c(cc2Nc2cccc4c2C(=O)N(C2CCC(=O)NC2=O)C4=O)N(C)C(=O)CC3)n1` (stereo not drawn) [Compound 39, 2-(2,6-dioxopiperidin-3-yl)-4-((1-methyl-6-(4-methylthiazol-2-yl)-2-oxo-1,2,3,4-tetrahydroquinolin-7-yl)amino)isoindoline-1,3-dione] yielded an activation at 1 µM in assay [1] of 33 to 66%. Moreover, the DC50 in assay [2] lay within 10 to 100 nM; in assay [3], 30 to 100 nM.
In turn, `O=C1CCC(N2C(=O)c3cccc(Nc4c(Oc5ccccc5Cl)ccc5c4cnn5C4CCOCC4)c3C2=O)C(=O)N1` (stereo not drawn) [Compound 13, 4-((5-(2-chlorophenoxy)-1-(tetrahydro-2H-pyran-4-yl)-1H-indazol-4-yl)amino)-2-(2,6-dioxopiperidin-3-yl)isoindoline-1,3-dione] came in with an activation at 1 µM in assay [1] of 66 to 100%. Besides, the DC50 in assay [2] was 10 to 100 nM; in assay [3] it was 30 to 100 nM.
For `Cn1ncc2cc(Nc3cccc4c3C(=O)N(C3CCC(=O)NC3=O)C4=O)c(Oc3ccccc3)cc21` (stereo not drawn) [Compound 15, 2-(2,6-dioxopiperidin-3-yl)-4-((1-methyl-6-phenoxy-1H-indazol-5-yl)amino)isoindoline-1,3-dione], in assay [1], the activation at 1 µM lay within 66 to 100%. The molecule further returned an EC50 in assay [2] below 10 nM. Also, the DC50 in assay [3] is 30 to 100 nM.
Turning to `COc1ccc(-c2cc3c(cnn3C)cc2Nc2cccc3c2C(=O)N(C2CCC(=O)NC2=O)C3=O)cc1F` (stereo not drawn) [Compound 14, 2-(2,6-dioxopiperidin-3-yl)-4-((6-(3-fluoro-4-methoxyphenyl)-1-methyl-1H-indazol-5-yl)amino)isoindoline-1,3-dione], the activation at 1 µM in assay [1] was 66 to 100%. The DC50 in assay [2] is above 100 nM. In assay [3], this molecule registered an EC50 above 100 nM.
Turning to `Cn1ncc2cc(Oc3ccccc3)c(Nc3cccc4c3C(=O)N(C3CCC(=O)NC3=O)C4=O)cc21` (stereo not drawn) [Compound 27, 2-(2,6-dioxopiperidin-3-yl)-4-((1-methyl-5-phenoxy-1H-indazol-6-yl)amino)isoindoline-1,3-dione], the activation at 1 µM in assay [1] was below 33%. The DC50 in assay [2] was 10 to 100 nM. For the same molecule, the EC50 in assay [3] was above 100 nM.
`CN(C)CCOc1cc(Oc2ccccc2)c(Nc2cccc3c2C(=O)N(C2CCC(=O)NC2=O)C3=O)cn1` (stereo not drawn) [Compound 9, 4-((6-(2-(dimethylamino)ethoxy)-4-phenoxypyridin-3-yl)amino)-2-(2,6-dioxopiperidin-3-yl)isoindoline-1,3-dione] returned an activation at 1 µM in assay [1] of 66 to 100%. The same molecule showed a 50% effective concentration (EC50) in assay [2] below 10 nM. Moreover, the DC50 in assay [3] was 30 to 100 nM.
`Cn1ncc2cc(Nc3cccc4c3C(=O)N(C3CCC(=O)NC3=O)C4=O)c(-c3cccc(C(F)(F)F)c3)cc21` (stereo not drawn) [Compound 28, 2-(2,6-dioxopiperidin-3-yl)-4-((1-methyl-6-(3-(trifluoromethyl)phenyl)-1H-indazol-5-yl)amino)isoindoline-1,3-dione] yielded an activation at 1 µM in assay [1] below 33%. In addition, the DC50 in assay [2] is above 100 nM. This molecule also registered an EC50 in assay [3] above 100 nM.
In the case of `Cc1cc(-c2cc3c(cc2Nc2cccc4c2C(=O)N(C2CCC(=O)NC2=O)C4=O)N(C)C(=O)CC3)c(F)cn1` (stereo not drawn) [Compound 46, 2-(2,6-dioxopiperidin-3-yl)-4-((6-(5-fluoro-2-methylpyridin-4-yl)-1-methyl-2-oxo-1,2,3,4-tetrahydroquinolin-7-yl)amino)isoindoline-1,3-dione], the activation at 1 µM in assay [1] was 66 to 100%. The figures for the EC50 in assay [2] and in assay [3] were below 10 nM and below 30 nM, respectively.
In assay [1], `Cc1nccc(-c2cc3c(cc2Nc2cccc4c2C(=O)N(C2CCC(=O)NC2=O)C4=O)N(C)C(=O)CC3)c1F` (stereo not drawn) [Compound 45, 2-(2,6-dioxopiperidin-3-yl)-4-((6-(3-fluoro-2-methylpyridin-4-yl)-1-methyl-2-oxo-1,2,3,4-tetrahydroquinolin-7-yl)amino)isoindoline-1,3-dione] had an activation at 1 µM of 66 to 100%. The EC50 in assay [2] was below 10 nM; in assay [3], below 30 nM.
`Cc1cc(-c2cc3c(cnn3C)cc2Nc2cccc3c2C(=O)N([C@H]2CCC(=O)NC2=O)C3=O)ccn1` [Compound 42, (S)-2-(2,6-dioxopiperidin-3-yl)-4-((1-methyl-6-(2-methylpyridin-4-yl)-1H-indazol-5-yl)amino)isoindoline-1,3-dione]: the activation at 1 µM in assay [1] was in the range of 33 to 66%. Also, the values for the DC50 in assay [2] and in assay [3] were above 100 nM and 30 to 100 nM, respectively.
Take `Cc1cc(-c2cc3c(cnn3C)cc2Nc2cccc3c2C(=O)N(C2CCC(=O)NC2=O)C3=O)cnn1` (stereo not drawn) [Compound 24, 2-(2,6-dioxopiperidin-3-yl)-4-((1-methyl-6-(6-methylpyridazin-4-yl)-1H-indazol-5-yl)amino)isoindoline-1,3-dione]: in assay [1], the activation at 1 µM lay in the range of 33 to 66%. In addition, in assay [2], the DC50 is above 100 nM. The EC50 in assay [3] is above 100 nM.
`Cc1cc(-c2cc3c(cc2Nc2cccc4c2C(=O)N([C@H]2CCC(=O)NC2=O)C4=O)n(C)c(=O)n3C)ccn1` [Compound 41, (S)-4-((1,3-dimethyl-6-(2-methylpyridin-4-yl)-2-oxo-2,3-dihydro-1H-benzo[d]imidazol-5-yl)amino)-2-(2,6-dioxopiperidin-3-yl)isoindoline-1,3-dione] displayed an activation at 1 µM in assay [1] of 66 to 100%. Also, the EC50 was below 10 nM in assay [2] and below 30 nM in assay [3].
Take `O=C1CCC(N2C(=O)c3cccc(Nc4cc5cnn(C6CCOCC6)c5cc4-c4ccnc(C(F)F)c4)c3C2=O)C(=O)N1` (stereo not drawn) [Compound 11, 4-((6-(2-(difluoromethyl)pyridin-4-yl)-1-(tetrahydro-2H-pyran-4-yl)-1H-indazol-5-yl)amino)-2-(2,6-dioxopiperidin-3-yl)isoindoline-1,3-dione]: in assay [1], the activation at 1 µM is 66 to 100%. For the same molecule, the DC50 in assay [2] is above 100 nM. Also, in assay [3], the EC50 is above 100 nM.
In assay [1], `COc1ccc(-c2cc3ncn(C)c3cc2Nc2cccc3c2C(=O)N(C2CCC(=O)NC2=O)C3=O)cc1F` (stereo not drawn) [Compound 5, 2-(2,6-dioxopiperidin-3-yl)-4-((5-(3-fluoro-4-methoxyphenyl)-1-methyl-1H-benzo[d]imidazol-6-yl)amino)isoindoline-1,3-dione] had an activation at 1 µM of 66 to 100%. The DC50 was 10 to 100 nM in assay [2] and 30 to 100 nM in assay [3].
